Results taken from PubChem BioAssay (NCI).
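Briefly, cells in 96-well plates were exposed to five compound concentrations for 48 h, and endpoints were estimated by linear interpolation. TGI denotes the concentration required for complete inhibition of growth.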

How the values were obtained:
Assay in all cases: NCI tumour cell line growth inhibition, 48 h
786-0 renal = test system: 786-0 renal
A498 renal = test system: A498 renal
A549 NSCLC = test system: A549 NSCLC
ACHN renal = test system: ACHN renal
BT-549 breast = test system: BT-549 breast
CAKI-1 renal = test system: CAKI-1 renal
CCRF-CEM leukemia = test system: CCRF-CEM leukemia
COLO 205 colon = test system: COLO 205 colon
DU-145 prostate = test system: DU-145 prostate
EKVX NSCLC = test system: EKVX NSCLC
HCC-2998 colon = test system: HCC-2998 colon
HCT-116 colon = test system: HCT-116 colon
HCT-15 colon = test system: HCT-15 colon
HL-60(TB) leukemia = test system: HL-60(TB) leukemia
HOP-62 NSCLC = test system: HOP-62 NSCLC
HOP-92 NSCLC = test system: HOP-92 NSCLC
HS 578T breast = test system: HS 578T breast
HT29 colon = test system: HT29 colon
IGROV1 ovarian = test system: IGROV1 ovarian
K-562 leukemia = test system: K-562 leukemia
KM12 colon = test system: KM12 colon
LOX IMVI melanoma = test system: LOX IMVI melanoma
M14 melanoma = test system: M14 melanoma
MALME-3M melanoma = test system: MALME-3M melanoma
MCF7 breast = test system: MCF7 breast
MDA-MB-231 breast = test system: MDA-MB-231 breast
MDA-MB-435 = test system: MDA-MB-435
MDA-N = test system: MDA-N
MOLT-4 leukemia = test system: MOLT-4 leukemia
NCI-H226 lung = test system: NCI-H226 lung
NCI-H23 lung = test system: NCI-H23 lung
NCI-H460 lung = test system: NCI-H460 lung
NCI-H522 lung = test system: NCI-H522 lung
NCI/ADR-RES ovarian = test system: NCI/ADR-RES ovarian
OVCAR-3 ovarian = test system: OVCAR-3 ovarian
OVCAR-4 ovarian = test system: OVCAR-4 ovarian
OVCAR-5 ovarian = test system: OVCAR-5 ovarian
OVCAR-8 ovarian = test system: OVCAR-8 ovarian
PC-3 prostate = test system: PC-3 prostate
RXF 393 renal = test system: RXF 393 renal
SF-268 CNS = test system: SF-268 CNS
SF-295 CNS = test system: SF-295 CNS
SF-539 CNS = test system: SF-539 CNS
SK-MEL-2 melanoma = test system: SK-MEL-2 melanoma
SK-MEL-28 melanoma = test system: SK-MEL-28 melanoma
SK-MEL-5 melanoma = test system: SK-MEL-5 melanoma
SK-OV-3 ovarian = test system: SK-OV-3 ovarian
SN12C renal = test system: SN12C renal
SNB-19 CNS = test system: SNB-19 CNS
SNB-75 CNS = test system: SNB-75 CNS
SW-620 colon = test system: SW-620 colon
T-47D breast = test system: T-47D breast
TK-10 renal = test system: TK-10 renal
U251 CNS = test system: U251 CNS
UACC-257 melanoma = test system: UACC-257 melanoma
UACC-62 melanoma = test system: UACC-62 melanoma
UO-31 renal = test system: UO-31 renal
RPMI-8226 leukemia = test system: RPMI-8226 leukemia
SR leukemia = test system: SR leukemia

## CN(C)CCCNC(CC#N)CCC#N (configuration not stated)
786-0 renal
  TGI: > 10 µM
A498 renal
  TGI: > 10 µM
A549 NSCLC
  TGI: > 10 µM
ACHN renal
  TGI: > 10 µM
BT-549 breast
  TGI: > 10 µM
CAKI-1 renal
  TGI: > 10 µM
CCRF-CEM leukemia
  TGI: > 10 µM
COLO 205 colon
  TGI: > 10 µM
DU-145 prostate
  TGI: > 10 µM
EKVX NSCLC
  TGI: > 10 µM
HCC-2998 colon
  TGI: > 10 µM
HCT-116 colon
  TGI: > 10 µM
HCT-15 colon
  TGI: > 10 µM
HL-60(TB) leukemia
  TGI: > 10 µM
HOP-62 NSCLC
  TGI: > 10 µM
HOP-92 NSCLC
  TGI: > 10 µM
HS 578T breast
  TGI: > 10 µM
HT29 colon
  TGI: > 10 µM
IGROV1 ovarian
  TGI: > 10 µM
K-562 leukemia
  TGI: > 10 µM
KM12 colon
  TGI: > 10 µM
LOX IMVI melanoma
  TGI: > 10 µM
M14 melanoma
  TGI: > 10 µM
MALME-3M melanoma
  TGI: > 10 µM
MCF7 breast
  TGI: > 10 µM
MDA-MB-231 breast
  TGI: > 10 µM
MDA-MB-435
  TGI: > 10 µM
MDA-N
  TGI: > 10 µM
MOLT-4 leukemia
  TGI: > 10 µM
NCI-H226 lung
  TGI: > 10 µM
NCI-H23 lung
  TGI: > 10 µM
NCI-H460 lung
  TGI: > 10 µM
NCI-H522 lung
  TGI: > 10 µM
NCI/ADR-RES ovarian
  TGI: > 10 µM
OVCAR-3 ovarian
  TGI: > 10 µM
OVCAR-4 ovarian
  TGI: > 10 µM
OVCAR-5 ovarian
  TGI: > 10 µM
OVCAR-8 ovarian
  TGI: > 10 µM
PC-3 prostate
  TGI: > 10 µM
RXF 393 renal
  TGI: > 10 µM
SF-268 CNS
  TGI: > 10 µM
SF-295 CNS
  TGI: > 10 µM
SF-539 CNS
  TGI: > 10 µM
SK-MEL-2 melanoma
  TGI: > 10 µM
SK-MEL-28 melanoma
  TGI: > 10 µM
SK-MEL-5 melanoma
  TGI: > 10 µM
SK-OV-3 ovarian
  TGI: > 10 µM
SN12C renal
  TGI: > 10 µM
SNB-19 CNS
  TGI: > 10 µM
SNB-75 CNS
  TGI: > 10 µM
SW-620 colon
  TGI: > 10 µM
T-47D breast
  TGI: > 10 µM
TK-10 renal
  TGI: > 10 µM
U251 CNS
  TGI: > 10 µM
UACC-257 melanoma
  TGI: > 10 µM
UACC-62 melanoma
  TGI: > 10 µM
UO-31 renal
  TGI: > 10 µM

## CN1CC[C@@]2(c3cccc(O)c3)CC(=O)/C(=C/c3ccccc3)[C@H]1C2
786-0 renal
  TGI: 25 µM
A498 renal
  TGI: 30.4 µM
A549 NSCLC
  TGI: 36.9 µM
ACHN renal
  TGI: 22.6 µM
BT-549 breast
  TGI: 26.7 µM
CAKI-1 renal
  TGI: 15.4 µM
CCRF-CEM leukemia
  TGI: > 27.7 µM
COLO 205 colon
  TGI: 30.3 µM
DU-145 prostate
  TGI: 29.3 µM
EKVX NSCLC
  TGI: 28.7 µM
HCC-2998 colon
  TGI: 25 µM
HCT-116 colon
  TGI: 12.5 µM
HCT-15 colon
  TGI: 41.2 µM
HL-60(TB) leukemia
  TGI: 7.73 µM
HOP-62 NSCLC
  TGI: 58.7 µM
HOP-92 NSCLC
  TGI: 31 µM
HS 578T breast
  TGI: 9.81 µM
HT29 colon
  TGI: 13.5 µM
IGROV1 ovarian
  TGI: 36.2 µM
K-562 leukemia
  TGI: 6.52 µM
KM12 colon
  TGI: > 30.4 µM
LOX IMVI melanoma
  TGI: 3.46 µM
M14 melanoma
  TGI: 30.4 µM
MALME-3M melanoma
  TGI: 33.5 µM
MCF7 breast
  TGI: 10.3 µM
MDA-MB-231 breast
  TGI: 23.6 µM
MDA-MB-435
  TGI: 13.9 µM
MDA-N
  TGI: 16.4 µM
MOLT-4 leukemia
  TGI: 6.21 µM
NCI-H226 lung
  TGI: 42.5 µM
NCI-H23 lung
  TGI: 46.4 µM
NCI-H460 lung
  TGI: 18.7 µM
NCI-H522 lung
  TGI: 20 µM
NCI/ADR-RES ovarian
  TGI: 24.5 µM
OVCAR-4 ovarian
  TGI: 22.2 µM
OVCAR-5 ovarian
  TGI: 32.2 µM
OVCAR-8 ovarian
  TGI: > 48 µM
PC-3 prostate
  TGI: 14.4 µM
RPMI-8226 leukemia
  TGI: 7.04 µM
RXF 393 renal
  TGI: 20.5 µM
SF-268 CNS
  TGI: 19.7 µM
SF-295 CNS
  TGI: 23.8 µM
SF-539 CNS
  TGI: 35.3 µM
SK-MEL-2 melanoma
  TGI: 87.2 µM
SK-MEL-28 melanoma
  TGI: 29 µM
SK-MEL-5 melanoma
  TGI: > 54.8 µM
SN12C renal
  TGI: 19.4 µM
SNB-19 CNS
  TGI: 19.5 µM
SNB-75 CNS
  TGI: 7.09 µM
SR leukemia
  TGI: 7.5 µM
SW-620 colon
  TGI: 10.1 µM
TK-10 renal
  TGI: 29.2 µM
U251 CNS
  TGI: 11.1 µM
UACC-257 melanoma
  TGI: 30.8 µM
UO-31 renal
  TGI: 25.5 µM
